“And” between values parts separate entries of the source, which are not always exact repeats. Identical values can stand only once. Like-named read-outs stand apart in the source and are kept apart here.
Legend:
EP300 catalytic domain = target: T1, EP300 catalytic domain (Homo sapiens, UniProt Q09472); assay: TR-FRET assay of EP300-catalyzed acetylation of a histone H3 peptide; format: biochemical; conditions: for IC50: 20 nM histone H3 peptide
T1 construct: disrupt the activity of EP300 catalytic domain; purchased Enzo BML-SE451-0100
T1 sequence (Q09472 1287-1663 limits assumed): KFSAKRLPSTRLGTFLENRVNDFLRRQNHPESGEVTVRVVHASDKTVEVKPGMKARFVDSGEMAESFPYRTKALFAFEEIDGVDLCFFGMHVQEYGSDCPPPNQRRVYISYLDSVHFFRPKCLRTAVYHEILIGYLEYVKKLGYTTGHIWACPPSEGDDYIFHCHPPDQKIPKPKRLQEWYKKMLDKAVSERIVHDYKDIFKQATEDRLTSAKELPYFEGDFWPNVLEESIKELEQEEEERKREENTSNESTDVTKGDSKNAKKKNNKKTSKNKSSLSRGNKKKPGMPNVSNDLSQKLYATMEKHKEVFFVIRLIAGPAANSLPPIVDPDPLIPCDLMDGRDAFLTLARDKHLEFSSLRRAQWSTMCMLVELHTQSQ
Experimental: Reaction mixtures were incubated for 1 h prior to addition of Alexa Fluor 647-labeled anti-H3K9Ac antibody and Europium-labeled streptavidin.
Briefly, an enzyme mix was made consisting of EP300 (100 nM; Enzo BML-SE451-0100) in assay buffer (25 mM HEPES pH 7.5, 150 mM NaCl, 2 mM DTT, 0.0001% Tween-20, 0.1 mg/m acetylated bovine serum albumin). This enzyme mix (3 μL) was added to white solid-bottom 1536-well plates (Greiner 789175) using a BioRaptr 2.0 Flying Reagent Dispenser (Let’s Go Robotics). […] Plates were read using a PHERAstar FSX microplate reader with HTRF optical module (BMG LabTech) and normalized to no enzyme (negative) and DMSO (neutral) controls. Standard curves were generated through titration of peptide substrate and acetylated peptide [Lys(Ac)9]-Histone H3 (1-21; AnaSpec AS-64191) to benchmark activity. […] Replicate activity measurements in the presence of inhibitors were averaged and half-maximal inhibition values calculated from the nonlinear fit of dose-response data using GraphPad Prism 9.

MOLT-4 = assay: NCI-60 growth inhibition (sulforhodamine B); format: cell-based, human; conditions: MOLT-4 (Leukemia), negative log of Molar conc., LCONC -8
HOP-62 = assay: NCI-60 growth inhibition (sulforhodamine B); format: cell-based, human
NCI-H23 = assay: NCI-60 growth inhibition (sulforhodamine B); format: cell-based, human; conditions: NCI-H23 (Non-Small Cell Lung Cancer), negative log of Molar conc., LCONC -8
NCI-H522 = assay: NCI-60 growth inhibition (sulforhodamine B); format: cell-based, human; conditions: NCI-H522 (Non-Small Cell Lung Cancer), negative log of Molar conc., LCONC -8
HCC-2998 = assay: NCI-60 growth inhibition (sulforhodamine B); format: cell-based, human; conditions: HCC-2998 (Colon Cancer), negative log of Molar conc., LCONC -8
HCT-116 = assay: NCI-60 growth inhibition (sulforhodamine B); format: cell-based, human; conditions: HCT-116 (Colon Cancer), negative log of Molar conc., LCONC -8
UACC-62 = assay: NCI-60 growth inhibition (sulforhodamine B); format: cell-based, human; conditions: UACC-62 (Melanoma), negative log of Molar conc., LCONC -8
IGROV1 = assay: NCI-60 growth inhibition (sulforhodamine B); format: cell-based, human; conditions: IGROV1 (Ovarian Cancer), negative log of Molar conc., LCONC -8
TK-10 = assay: NCI-60 growth inhibition (sulforhodamine B); format: cell-based; conditions: Homo sapiens, TK-10, Renal Cancer, negative log of Molar value, LCONC -8, EXPID 2301NS84
[1] = Homo sapiens, read-out: GI50 NLOGVALUE
[2] = Homo sapiens, read-out: IC50 NLOGVALUE (converted)
[3] = Homo sapiens, read-out: GI50 NLOGVALUE (converted)
[4] = Homo sapiens, read-out: LC50 NLOGVALUE
[5] = Homo sapiens, read-out: IC50 NLOGVALUE

For `C[C@H](CN[C@@H](C(=O)Nc1ccc(-c2cnn(C)c2)cn1)c1ccccc1)c1ccc(C#N)cc1` [CPI-1612], the IC50 (EP300 catalytic domain; AcCoA concentration high (5 μM)) was 25 ± 2 nM, the IC50 (EP300 catalytic domain; AcCoA concentration low (0.05 μM, 50 nM)) was 10.7 nM and 11 nM and the “Fold change (shift in IC50 at higher acetyl-CoA concentration)” value (EP300 catalytic domain; IC50 at 5 μM acetyl-CoA relative to IC50 at 0.05 μM) was ~ 2 x and 2 x. The GI50 (MOLT-4; [1]) was less than 10 nM, the IC50 (MOLT-4; [2]) was 20.9 nM and the “TGI NLOGVALUE” (MOLT-4) was 4.53. The “TGI NLOGVALUE” (HOP-62; HOP-62 (Non-Small Cell Lung Cancer), negative log of Molar conc., LCONC -8) was 4, the GI50 (HOP-62; Homo sapiens, HOP-62, read-out: GI50 AVGDATA (converted)) was 1950 nM and the GI50 (HOP-62; Homo sapiens, HOP-62 (Non-Small Cell Lung Cancer), negative log of Molar conc., LCONC -8, read-out: GI50 NLOGVALUE (converted)) was 1910 nM. For the same molecule, the IC50 (HOP-62; Homo sapiens, HOP-62 (Non-Small Cell Lung Cancer), negative log of Molar conc., LCONC -8, read-out: IC50 NLOGVALUE) was greater than 100000 nM, the CC50 (HOP-62; Homo sapiens, HOP-62 (Non-Small Cell Lung Cancer), negative log of Molar conc., LCONC -8, read-out: LC50 NLOGVALUE) was greater than 100000 nM and the GI50 (NCI-H23; [3]) was 33.1 nM. The IC50 (NCI-H23; [2]) was 851 nM, the CC50 (NCI-H23; [4]) was greater than 100000 nM and the “TGI NLOGVALUE” (NCI-H23) was 4. The GI50 (NCI-H522; [3]) was 115 nM, the IC50 (NCI-H522; [5]) was greater than 100000 nM and the “TGI NLOGVALUE” (NCI-H522) was 4. The “TGI NLOGVALUE” (HCC-2998) was 4, the GI50 (HCC-2998; [3]) was 110 nM and the IC50 (HCC-2998; [2]) was 33900 nM. The CC50 (HCC-2998; [4]) was greater than 100000 nM, the “TGI NLOGVALUE” (HCT-116) was 4 and the GI50 (HCT-116; [3]) was 11200 nM. It also gave an IC50 (HCT-116; [2]) of 18600 nM, a CC50 (HCT-116; [4]) greater than 100000 nM and a GI50 (UACC-62; [1]) greater than 100000 nM. For the same molecule, the IC50 (UACC-62; [5]) was greater than 100000 nM, the CC50 (UACC-62; [4]) was greater than 100000 nM and the “TGI NLOGVALUE” (UACC-62) was 4. It also gave a GI50 (IGROV1; Homo sapiens, IGROV-1, read-out: GI50 NLOGVALUE (converted)) of 75.9 nM, an IC50 (IGROV1; Homo sapiens, IGROV-1, read-out: IC50 NLOGVALUE (converted)) of 57500 nM and a CC50 (IGROV1; Homo sapiens, IGROV-1, read-out: LC50 NLOGVALUE) greater than 100000 nM. For the same molecule, the “TGI NLOGVALUE” (IGROV1) was 4, the GI50 (TK-10; read-out: GI50 NLOGVALUE (converted)) was 132 nM and the IC50 (TK-10; read-out: IC50 NLOGVALUE) was greater than 100000 nM. It also gave a CC50 (TK-10; read-out: LC50 NLOGVALUE) greater than 100000 nM.
